Reference: the kinase profiling compilation of Christmann-Franck et al. (2016)
“And” between values parts separate entries of the source, which are not always exact repeats. Equal entries are not always repeated.

Experiments:
Assay in all cases: radiometric filter-binding kinase assay, Kinase HotSpot
Conditions in all cases: compound 0.5 µM; ATP 10 µM
[1] = molecular target: EPHA4 (human) (UniProt P54764)
[2] = molecular target: ADRBK2 (human) (UniProt P35626)
[3] = molecular target: KIT (human) (UniProt P10721)
[4] = molecular target: MAP3K5 (human) (UniProt Q99683)
[5] = molecular target: NEK6 (human) (UniProt Q9HC98)
[6] = molecular target: CDK1 CCNA2 (human) (UniProt P06493+P20248)
[7] = molecular target: EPHA7 (human) (UniProt Q15375)
[8] = molecular target: SYK (human) (UniProt P43405)
[9] = molecular target: PRKCH (human) (UniProt P24723)
[10] = molecular target: YES1 (human) (UniProt P07947)
[11] = molecular target: STK3 (human) (UniProt Q13188)
[12] = molecular target: MAPKAPK2 (human) (UniProt P49137)
[13] = molecular target: CDK9 CCNK (human) (UniProt O75909+P50750)
[14] = molecular target: HIPK3 (human) (UniProt Q9H422)
[15] = molecular target: PIM2 (human) (UniProt Q9P1W9)
[16] = molecular target: MELK (human) (UniProt Q14680)
[17] = molecular target: PHKG2 (human) (UniProt P15735)
[18] = molecular target: LRRK2 (human) (UniProt Q5S007)
[19] = molecular target: PRKD1 (human) (UniProt Q15139)
[20] = molecular target: SGK3 (human) (UniProt Q96BR1)
[21] = molecular target: BMX (human) (UniProt P51813)
[22] = molecular target: TYRO3 (human) (UniProt Q06418)
[23] = molecular target: MAP4K2 (human) (UniProt Q12851)
[24] = molecular target: TNK2 (human) (UniProt Q07912)
[25] = molecular target: INSR (human) (UniProt P06213)
[26] = molecular target: PRKG1 (human) (UniProt Q13976)
[27] = molecular target: STK39 (human) (UniProt Q9UEW8)
[28] = molecular target: AURKB (human) (UniProt Q96GD4)
[29] = molecular target: CDK9 CCNT1 (human) (UniProt P50750+O60563)
[30] = molecular target: NUAK1 (human) (UniProt O60285)
[31] = molecular target: EPHA8 (human) (UniProt P29322)
[32] = molecular target: MATK (human) (UniProt P42679)
[33] = molecular target: JAK3 JH1 JH2 (human) (UniProt P52333)
[34] = molecular target: PAK7 (human) (UniProt Q9P286)
[35] = molecular target: NTRK3 (human) (UniProt Q16288)
[36] = molecular target: CHEK2 (human) (UniProt O96017)
[37] = molecular target: DAPK1 (human) (UniProt P53355)
[38] = molecular target: JAK1 JH1 catalytic (human) (UniProt P23458)
[39] = molecular target: DMPK (human) (UniProt Q09013)
[40] = molecular target: GRK5 (human) (UniProt P34947)
[41] = molecular target: STK24 (human) (UniProt Q9Y6E0)
[42] = molecular target: CSK (human) (UniProt P41240)

PRKD1 (human), sequence (Q15139 whole entry, looked up): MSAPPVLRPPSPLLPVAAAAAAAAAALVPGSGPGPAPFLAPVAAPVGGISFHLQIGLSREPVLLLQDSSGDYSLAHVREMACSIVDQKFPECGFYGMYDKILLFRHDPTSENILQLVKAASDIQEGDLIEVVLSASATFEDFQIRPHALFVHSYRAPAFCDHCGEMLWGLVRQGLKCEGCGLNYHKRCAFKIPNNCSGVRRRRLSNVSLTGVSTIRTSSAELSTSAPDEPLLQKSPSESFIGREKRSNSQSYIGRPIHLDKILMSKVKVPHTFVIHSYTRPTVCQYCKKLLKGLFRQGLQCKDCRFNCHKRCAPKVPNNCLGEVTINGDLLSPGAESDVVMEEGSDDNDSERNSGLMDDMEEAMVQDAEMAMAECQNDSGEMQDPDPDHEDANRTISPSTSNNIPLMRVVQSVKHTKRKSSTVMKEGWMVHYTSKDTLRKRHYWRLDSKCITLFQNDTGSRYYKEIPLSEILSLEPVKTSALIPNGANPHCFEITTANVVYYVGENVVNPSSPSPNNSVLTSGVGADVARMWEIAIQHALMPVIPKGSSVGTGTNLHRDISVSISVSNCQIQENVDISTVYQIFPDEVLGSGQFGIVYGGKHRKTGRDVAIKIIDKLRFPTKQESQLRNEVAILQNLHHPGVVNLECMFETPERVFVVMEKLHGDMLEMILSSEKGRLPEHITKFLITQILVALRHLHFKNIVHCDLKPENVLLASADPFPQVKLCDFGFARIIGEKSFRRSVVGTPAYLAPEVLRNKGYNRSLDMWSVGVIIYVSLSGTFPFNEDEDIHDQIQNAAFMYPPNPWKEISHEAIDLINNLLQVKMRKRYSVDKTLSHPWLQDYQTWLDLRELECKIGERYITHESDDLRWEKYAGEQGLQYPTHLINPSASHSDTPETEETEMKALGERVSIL
LRRK2 (human), sequence (Q5S007 whole entry, looked up): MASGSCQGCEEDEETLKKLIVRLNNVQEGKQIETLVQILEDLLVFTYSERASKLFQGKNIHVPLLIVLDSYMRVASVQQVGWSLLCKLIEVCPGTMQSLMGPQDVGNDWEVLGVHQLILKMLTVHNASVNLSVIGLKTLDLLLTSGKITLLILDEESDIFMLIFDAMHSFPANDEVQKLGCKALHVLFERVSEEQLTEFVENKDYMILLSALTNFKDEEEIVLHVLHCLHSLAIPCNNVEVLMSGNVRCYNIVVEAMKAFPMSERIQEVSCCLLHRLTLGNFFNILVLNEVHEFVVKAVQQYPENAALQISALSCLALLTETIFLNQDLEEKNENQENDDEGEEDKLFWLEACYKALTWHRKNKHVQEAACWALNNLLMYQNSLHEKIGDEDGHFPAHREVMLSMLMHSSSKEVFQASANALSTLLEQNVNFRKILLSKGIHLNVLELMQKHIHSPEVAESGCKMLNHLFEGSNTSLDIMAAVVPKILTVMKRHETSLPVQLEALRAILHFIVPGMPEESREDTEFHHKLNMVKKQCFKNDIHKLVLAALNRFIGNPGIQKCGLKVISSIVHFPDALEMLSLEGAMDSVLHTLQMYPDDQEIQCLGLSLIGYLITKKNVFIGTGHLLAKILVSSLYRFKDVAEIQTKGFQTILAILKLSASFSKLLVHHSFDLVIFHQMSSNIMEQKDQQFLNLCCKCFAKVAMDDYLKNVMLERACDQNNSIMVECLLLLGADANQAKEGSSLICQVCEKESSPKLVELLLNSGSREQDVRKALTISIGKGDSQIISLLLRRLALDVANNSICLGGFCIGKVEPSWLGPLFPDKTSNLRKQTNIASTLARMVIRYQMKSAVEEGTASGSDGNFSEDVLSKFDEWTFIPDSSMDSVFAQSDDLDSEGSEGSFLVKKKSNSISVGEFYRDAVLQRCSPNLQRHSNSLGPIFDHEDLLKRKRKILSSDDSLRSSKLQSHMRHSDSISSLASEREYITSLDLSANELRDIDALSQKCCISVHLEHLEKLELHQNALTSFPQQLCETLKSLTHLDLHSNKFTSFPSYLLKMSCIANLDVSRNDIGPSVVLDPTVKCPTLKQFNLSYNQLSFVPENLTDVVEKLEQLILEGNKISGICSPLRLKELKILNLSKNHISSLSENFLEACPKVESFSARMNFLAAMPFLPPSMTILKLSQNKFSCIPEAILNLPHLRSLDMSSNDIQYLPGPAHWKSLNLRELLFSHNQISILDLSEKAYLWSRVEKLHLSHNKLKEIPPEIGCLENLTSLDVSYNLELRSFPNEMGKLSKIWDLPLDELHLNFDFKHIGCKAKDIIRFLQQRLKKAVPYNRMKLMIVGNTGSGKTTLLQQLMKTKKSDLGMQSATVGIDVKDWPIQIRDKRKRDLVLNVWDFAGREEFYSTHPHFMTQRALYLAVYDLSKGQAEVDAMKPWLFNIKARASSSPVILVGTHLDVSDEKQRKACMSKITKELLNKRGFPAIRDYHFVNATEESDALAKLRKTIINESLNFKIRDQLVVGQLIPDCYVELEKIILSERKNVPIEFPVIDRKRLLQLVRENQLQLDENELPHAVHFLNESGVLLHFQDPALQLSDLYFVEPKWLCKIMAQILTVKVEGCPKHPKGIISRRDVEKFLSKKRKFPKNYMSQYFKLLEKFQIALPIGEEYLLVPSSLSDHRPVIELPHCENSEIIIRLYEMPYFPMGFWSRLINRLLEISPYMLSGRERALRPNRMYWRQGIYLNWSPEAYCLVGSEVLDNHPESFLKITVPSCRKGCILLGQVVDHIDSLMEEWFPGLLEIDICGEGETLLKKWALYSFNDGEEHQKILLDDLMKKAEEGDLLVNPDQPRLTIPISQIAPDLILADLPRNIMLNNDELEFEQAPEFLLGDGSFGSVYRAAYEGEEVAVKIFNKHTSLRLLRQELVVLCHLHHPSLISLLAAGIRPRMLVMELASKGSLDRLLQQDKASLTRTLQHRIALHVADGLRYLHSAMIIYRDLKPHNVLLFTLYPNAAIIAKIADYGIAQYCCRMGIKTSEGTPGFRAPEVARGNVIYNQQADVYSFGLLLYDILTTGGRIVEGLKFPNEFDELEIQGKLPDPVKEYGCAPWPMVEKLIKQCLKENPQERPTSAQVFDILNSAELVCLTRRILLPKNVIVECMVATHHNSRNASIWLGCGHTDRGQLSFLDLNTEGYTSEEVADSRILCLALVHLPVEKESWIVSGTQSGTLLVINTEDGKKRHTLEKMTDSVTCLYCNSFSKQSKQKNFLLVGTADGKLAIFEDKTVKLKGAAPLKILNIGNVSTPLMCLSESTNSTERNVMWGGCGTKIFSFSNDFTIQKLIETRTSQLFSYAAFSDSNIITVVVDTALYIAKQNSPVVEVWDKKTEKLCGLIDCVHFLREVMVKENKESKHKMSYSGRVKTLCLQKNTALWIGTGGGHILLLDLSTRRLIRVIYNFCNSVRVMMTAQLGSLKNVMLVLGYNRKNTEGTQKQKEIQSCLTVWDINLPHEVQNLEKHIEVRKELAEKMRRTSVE
GRK5 (human), sequence (P34947 whole entry, looked up): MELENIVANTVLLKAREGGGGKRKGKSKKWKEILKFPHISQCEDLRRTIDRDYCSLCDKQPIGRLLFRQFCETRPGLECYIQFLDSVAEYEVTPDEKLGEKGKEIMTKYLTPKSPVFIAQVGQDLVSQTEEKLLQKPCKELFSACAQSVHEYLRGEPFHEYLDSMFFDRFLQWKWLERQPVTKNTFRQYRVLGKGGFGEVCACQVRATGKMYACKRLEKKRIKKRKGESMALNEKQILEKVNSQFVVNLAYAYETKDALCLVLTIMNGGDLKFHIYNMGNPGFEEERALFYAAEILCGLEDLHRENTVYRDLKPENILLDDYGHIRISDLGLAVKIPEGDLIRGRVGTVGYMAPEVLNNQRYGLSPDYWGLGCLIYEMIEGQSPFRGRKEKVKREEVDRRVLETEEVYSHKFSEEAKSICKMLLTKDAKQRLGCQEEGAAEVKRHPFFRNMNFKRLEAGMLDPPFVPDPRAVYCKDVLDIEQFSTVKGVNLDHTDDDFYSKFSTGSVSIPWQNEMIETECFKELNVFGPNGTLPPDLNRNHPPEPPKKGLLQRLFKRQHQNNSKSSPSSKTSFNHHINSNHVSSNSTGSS
MATK (human), sequence (P42679 whole entry, looked up): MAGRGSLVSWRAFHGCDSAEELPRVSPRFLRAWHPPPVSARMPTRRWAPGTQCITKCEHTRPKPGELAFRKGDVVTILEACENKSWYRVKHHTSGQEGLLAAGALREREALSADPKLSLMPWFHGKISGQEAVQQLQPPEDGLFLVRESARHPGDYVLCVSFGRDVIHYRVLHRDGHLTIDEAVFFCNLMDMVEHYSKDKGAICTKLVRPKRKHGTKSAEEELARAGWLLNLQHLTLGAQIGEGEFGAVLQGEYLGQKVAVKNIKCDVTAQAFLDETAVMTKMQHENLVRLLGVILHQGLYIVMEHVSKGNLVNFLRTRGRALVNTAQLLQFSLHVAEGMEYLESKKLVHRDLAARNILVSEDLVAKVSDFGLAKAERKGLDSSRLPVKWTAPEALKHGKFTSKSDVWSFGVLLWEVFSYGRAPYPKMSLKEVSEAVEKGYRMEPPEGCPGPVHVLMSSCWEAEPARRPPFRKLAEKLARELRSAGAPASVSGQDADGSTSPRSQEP
NEK6 (human), sequence (Q9HC98 whole entry, looked up): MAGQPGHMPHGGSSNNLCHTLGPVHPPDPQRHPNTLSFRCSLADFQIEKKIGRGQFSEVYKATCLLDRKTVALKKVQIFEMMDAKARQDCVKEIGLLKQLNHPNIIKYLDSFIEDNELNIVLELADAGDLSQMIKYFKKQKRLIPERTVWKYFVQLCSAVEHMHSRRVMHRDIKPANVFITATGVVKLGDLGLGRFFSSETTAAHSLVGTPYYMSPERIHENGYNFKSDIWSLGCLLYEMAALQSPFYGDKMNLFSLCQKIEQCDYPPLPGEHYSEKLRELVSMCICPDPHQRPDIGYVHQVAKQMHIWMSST

Cc1cncc2cccc(S(=O)(=O)N3CCCN(C(=O)CN)C[C@H]3C)c12
residual activity [1]: 99.9%
residual activity [2]: 95%
residual activity [3]: 92.9%
residual activity [4]: 106%
residual activity [5]: 93.3%
residual activity [6]: 89.2%
residual activity [7]: 90.7%
residual activity [8]: 100%
residual activity [9]: 34.4%
residual activity [10]: 92%
residual activity [11]: 104%
residual activity [12]: 103%
residual activity [13]: 103%
residual activity [14]: 105%
residual activity [15]: 104%
residual activity [16]: 83%
residual activity [17]: 90.5%
residual activity [18]: 54.6%
residual activity [19]: 96.7%
residual activity [20]: 96%
residual activity [21]: 94%
residual activity [22]: 98.9%
residual activity [23]: 106%
residual activity [24]: 84.5%
residual activity [25]: 88.9%
residual activity [26]: 78.7% and 85%
residual activity [27]: 95.3%
residual activity [28]: 34.9%
residual activity [29]: 86.7%
residual activity [30]: 91.1%
residual activity [31]: 95%
residual activity [32]: 94.4%
residual activity [33]: 93.1%
residual activity [34]: 101%
residual activity [35]: 87.5%
residual activity [36]: 96.2%
residual activity [37]: 97.9%
residual activity [38]: 108%
residual activity [39]: 105%
residual activity [40]: 97.1%
residual activity [41]: 92.4%

NC(=O)c1cccc(-c2cc(Nc3ccc(OC(F)(F)F)cc3)ncn2)c1
residual activity [1]: 94.4%
residual activity [2]: 80.5%
residual activity [3]: 100%
residual activity [4]: 90.3%
residual activity [5]: 97.4%
residual activity [6]: 103%
residual activity [7]: 99.1%
residual activity [8]: 99.9%
residual activity [9]: 98.4%
residual activity [10]: 87.4%
residual activity [11]: 93.6%
residual activity [12]: 97.3%
residual activity [13]: 106%
residual activity [42]: 104%
residual activity [14]: 104%
residual activity [15]: 115%
residual activity [16]: 94.5%
residual activity [17]: 103%
residual activity [18]: 108%
residual activity [19]: 99.5%
residual activity [20]: 104%
residual activity [21]: 107%
residual activity [23]: 132%
residual activity [24]: 98.5%
residual activity [25]: 105%
residual activity [26]: 92.9% and 98.4%
residual activity [27]: 85.5%
residual activity [28]: 96.9%
residual activity [29]: 82.2%
residual activity [30]: 96.7%
residual activity [31]: 94.5%
residual activity [32]: 100%
residual activity [33]: 101%
residual activity [34]: 88.1%
residual activity [35]: 92.7%
residual activity [36]: 101%
residual activity [37]: 81.1%
residual activity [38]: 98.9%
residual activity [39]: 96.1%
residual activity [40]: 109%
residual activity [41]: 89.5%

Fc1ccc(-c2nc3n(c2-c2ccncc2)CCS3)cc1
residual activity [1]: 106%
residual activity [2]: 95%
residual activity [3]: 92.8%
residual activity [4]: 105%
residual activity [5]: 98.7%
residual activity [6]: 94.7%
residual activity [7]: 76.3%
residual activity [8]: 98.3%
residual activity [9]: 87.4%
residual activity [10]: 99.4%
residual activity [11]: 111%
residual activity [12]: 101%
residual activity [13]: 101%
residual activity [14]: 109%
residual activity [15]: 121%
residual activity [16]: 102%
residual activity [17]: 104%
residual activity [18]: 96.7%
residual activity [19]: 90.2%
residual activity [20]: 95.8%
residual activity [21]: 104%
residual activity [22]: 104%
residual activity [23]: 109%
residual activity [24]: 98%
residual activity [25]: 91.2%
residual activity [26]: 103% and 95.9%
residual activity [27]: 103%
residual activity [28]: 98.5%
residual activity [29]: 94.9%
residual activity [30]: 98.6%
residual activity [31]: 88.2%
residual activity [32]: 89.4%
residual activity [33]: 94.3%
residual activity [34]: 97.6%
residual activity [35]: 105%
residual activity [36]: 97.7%
residual activity [37]: 100%
residual activity [38]: 106%
residual activity [39]: 102%
residual activity [40]: 103%
residual activity [41]: 94.2%
